# Source: ChEMBL document CHEMBL5257022, “An integrated overview on pyrrolizines as potential anti-inflammatory, analgesic and antipyretic agents” (Eur J Med Chem, 2016)
# Columns and labels:
# Mus musculus [1] = assay: Analgesic activity in ddY mouse assessed as inhibition of acetic acid induced writhing at 30 mg/kg, po for 30 mins followed by acetic acid injection and measured after 5 to 10 mins; type: functional; parameters: scale not given: the % may be the effect or the level left; details: time 35-40 min
# Rattus norvegicus [2] = assay: Antiinflammatory activity against carrageenan-induced paw edema in Wistar rat assessed as inhibition of edema at 30 mg/kg, po for 1 hr prior to carrageenan induction; type: functional
# Rattus norvegicus [3] = assay: Antiinflammatory activity in rat assessed as inhibition of paw edema; type: functional
# [4] = Gastrointestinal toxicity in rat assessed as ulcer index at 20 mg/kg, po; type: organism-based; details: in vivo
# [5] = biological target: T1, Prostaglandin G/H synthase 2 (Homo sapiens, UniProt P35354); assay: Inhibition of COX2 (unknown origin)
# T1 sequence (P35354 whole entry): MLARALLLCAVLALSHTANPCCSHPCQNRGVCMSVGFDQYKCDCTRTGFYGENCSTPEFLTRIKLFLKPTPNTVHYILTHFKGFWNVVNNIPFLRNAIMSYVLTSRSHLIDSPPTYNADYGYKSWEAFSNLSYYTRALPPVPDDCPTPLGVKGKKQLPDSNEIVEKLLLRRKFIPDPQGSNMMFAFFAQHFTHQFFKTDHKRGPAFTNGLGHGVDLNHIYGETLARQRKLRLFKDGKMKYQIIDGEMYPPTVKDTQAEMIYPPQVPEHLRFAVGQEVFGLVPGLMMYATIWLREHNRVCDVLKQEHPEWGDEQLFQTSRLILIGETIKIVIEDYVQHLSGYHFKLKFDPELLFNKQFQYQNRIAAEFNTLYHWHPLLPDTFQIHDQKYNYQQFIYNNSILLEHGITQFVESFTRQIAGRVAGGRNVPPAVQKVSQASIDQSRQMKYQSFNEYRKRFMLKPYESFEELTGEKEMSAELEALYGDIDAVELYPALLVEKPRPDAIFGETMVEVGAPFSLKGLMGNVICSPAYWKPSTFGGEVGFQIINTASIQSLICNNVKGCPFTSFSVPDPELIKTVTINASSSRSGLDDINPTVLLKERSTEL
# [6] = biological target: T2, Prostaglandin G/H synthase 1 (Bos taurus) (UniProt O62664); assay: Inhibition of COX1 in bovine thrombocyte at 10 uM relative to control
# T2 sequence (whole entry): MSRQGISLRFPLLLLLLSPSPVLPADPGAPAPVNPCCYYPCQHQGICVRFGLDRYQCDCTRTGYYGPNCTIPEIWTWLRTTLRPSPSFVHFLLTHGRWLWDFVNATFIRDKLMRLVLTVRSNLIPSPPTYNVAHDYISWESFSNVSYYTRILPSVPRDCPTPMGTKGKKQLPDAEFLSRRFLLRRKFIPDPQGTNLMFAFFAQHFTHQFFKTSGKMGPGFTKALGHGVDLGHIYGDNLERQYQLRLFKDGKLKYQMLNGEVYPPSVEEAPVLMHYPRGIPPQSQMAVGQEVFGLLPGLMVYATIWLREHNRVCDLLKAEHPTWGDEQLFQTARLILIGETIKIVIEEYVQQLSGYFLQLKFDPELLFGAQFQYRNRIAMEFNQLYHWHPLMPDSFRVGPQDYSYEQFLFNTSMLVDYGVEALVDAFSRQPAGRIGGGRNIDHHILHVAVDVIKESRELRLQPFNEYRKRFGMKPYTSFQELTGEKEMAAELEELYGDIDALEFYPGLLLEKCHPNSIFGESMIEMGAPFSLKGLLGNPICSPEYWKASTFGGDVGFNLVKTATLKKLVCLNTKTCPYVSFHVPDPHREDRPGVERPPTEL
# [7] = biological target: T3, Polyunsaturated fatty acid 5-lipoxygenase (Homo sapiens) (UniProt P09917); assay: Inhibition of 5-LOX in human PMNL at 10 uM relative to control; type: cell-based
# T3 sequence (whole entry): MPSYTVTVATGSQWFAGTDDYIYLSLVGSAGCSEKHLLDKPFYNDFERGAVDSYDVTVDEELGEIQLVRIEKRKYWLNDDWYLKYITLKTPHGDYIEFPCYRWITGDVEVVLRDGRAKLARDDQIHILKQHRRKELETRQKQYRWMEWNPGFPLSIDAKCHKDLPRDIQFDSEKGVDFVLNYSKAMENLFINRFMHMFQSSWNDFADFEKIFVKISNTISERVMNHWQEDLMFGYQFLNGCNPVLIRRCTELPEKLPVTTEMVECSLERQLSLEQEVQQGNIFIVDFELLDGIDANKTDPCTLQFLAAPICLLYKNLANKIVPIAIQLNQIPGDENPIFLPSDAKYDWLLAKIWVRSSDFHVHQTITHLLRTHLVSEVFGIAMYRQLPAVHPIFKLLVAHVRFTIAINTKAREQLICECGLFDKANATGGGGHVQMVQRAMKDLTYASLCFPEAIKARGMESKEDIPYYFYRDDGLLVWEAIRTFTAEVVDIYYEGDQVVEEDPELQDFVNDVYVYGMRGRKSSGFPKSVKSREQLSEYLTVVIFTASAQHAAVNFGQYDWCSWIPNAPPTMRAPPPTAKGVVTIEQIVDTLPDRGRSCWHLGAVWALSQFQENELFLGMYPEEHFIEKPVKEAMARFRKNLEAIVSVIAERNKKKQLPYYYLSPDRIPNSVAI
# Rattus norvegicus [8] = assay: Antiinflammatory activity in carrageenan induced Sprague-Dawley rat assessed as reduction in edema formation after 3 hrs; type: functional; details: read-out: ID50 (the source's name)
# Mus musculus [9] = species: Mus musculus; assay: Analgesic activity in mouse assessed as inhibition of acetic acid-induced writhing response relative to aspirin; type: functional
# Rattus norvegicus [10] = assay: Antiinflammatory activity in rat assessed as fold change in inhibition of paw edema relative to phenylbutazone; type: functional
# [11] = biological target: T1, Prostaglandin G/H synthase 2; assay: Inhibition of human COX2
# [12] = biological target: T4, Prostaglandin G/H synthase 1 (Homo sapiens, UniProt P23219); assay: Inhibition of human COX1
# [13] = biological target: T5, Polyunsaturated fatty acid 5-lipoxygenase (Homo sapiens, UniProt P09917); assay: Inhibition of 5-LOX (unknown origin)
# T5 sequence (P09917 whole entry): T3 sequence (whole entry)
# [14] = biological target: T4, Prostaglandin G/H synthase 1; assay: Inhibition of COX1 (unknown origin)
# [15] = Toxicity in gastric mucosa of rat assessed as ulcer index at 200 mg/kg; type: organism-based; details: in vivo
# [16] = Toxicity in gastric mucosa of rat assessed as ulcer index at 10 mg/kg; type: organism-based; details: in vivo
# [17] = Toxicity in gastric mucosa of rat assessed as ulcer index at 400 mg/kg; type: organism-based; details: in vivo
# [18] = Drug excretion in human urine assessed as keto ro lac level; type: ADME
# [19] = Drug excretion in human urine assessed as glucuronide conjugate level; type: ADME
# [20] = Drug excretion in human urine assessed as 4-hydroxy keto ro lac level; type: ADME
# Oryctolagus cuniculus = species: Oryctolagus cuniculus; assay: Inhibition of collagen-induced platelet aggregation in rabbit concha artery blood at 10 uM; type: functional
# T4 sequence (P23219 whole entry): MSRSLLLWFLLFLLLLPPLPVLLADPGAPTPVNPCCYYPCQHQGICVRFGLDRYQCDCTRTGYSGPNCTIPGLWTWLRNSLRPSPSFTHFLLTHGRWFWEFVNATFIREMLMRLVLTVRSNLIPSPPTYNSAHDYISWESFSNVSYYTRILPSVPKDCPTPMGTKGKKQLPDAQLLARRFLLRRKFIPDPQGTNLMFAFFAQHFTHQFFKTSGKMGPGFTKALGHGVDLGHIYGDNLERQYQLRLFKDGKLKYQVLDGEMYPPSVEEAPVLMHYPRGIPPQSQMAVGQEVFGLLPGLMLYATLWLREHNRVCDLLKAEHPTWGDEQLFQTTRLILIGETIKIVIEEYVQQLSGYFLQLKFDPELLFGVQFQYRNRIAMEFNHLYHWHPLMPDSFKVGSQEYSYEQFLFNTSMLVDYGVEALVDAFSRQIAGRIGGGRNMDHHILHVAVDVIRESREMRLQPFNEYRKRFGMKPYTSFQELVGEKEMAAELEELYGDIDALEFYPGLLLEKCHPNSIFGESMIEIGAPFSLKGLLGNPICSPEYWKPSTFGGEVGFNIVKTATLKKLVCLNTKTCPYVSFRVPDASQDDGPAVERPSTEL
smiles,measurement,setting,value
COc1ccc(-c2c(-c3ccc(Cl)cc3)cc3n2CCC3C(=O)O)cc1 (configuration not stated),Activity,Mus musculus [1],87.3%
same,inhibition in vivo at 30 mg/kg,Rattus norvegicus [2],48.2%
N#Cc1c(N)c(C(=O)Nc2ccccc2Cl)n2c1CCC2,inhibition (INH),Rattus norvegicus [3],36.1%
same,UI,[4],9.2
CSc1ccc(-c2cn3c(c2-c2ccc(F)cc2)CCC3)cc1,IC50,[5],0.1 µM
same,IP,[6],28%
same,IP,[7],0%
CS(=O)(=O)Nc1ccc(-c2cn3c(c2-c2ccc(Cl)cc2)CCC3)cc1,IP,[6],0%
same,IP,[7],0%
O=C(c1ccccc1)c1ccc2n1CCC2C(=O)O (racemic) [KETOROLAC],ED50,Rattus norvegicus [8],0.08 mg/kg
same,fold change (FC),Mus musculus [9],350
same,fold change (FC),Rattus norvegicus [10],36
same,IC50,[11],3.5 µM
same,IC50,[12],1.23 µM
Brc1ccc(-c2cn3c(c2-c2ccccc2)CCC3)s1,IP,[6],25%
same,IC50,[13],8.4 µM
O=C(O)/C=C/c1c(-c2ccc(CCc3ccccc3)cc2)c(-c2ccccc2)c2n1CCC2,IP,[6],58%
same,IC50,[14],10 µM
CC(C)Cc1ccc(C(C)C(=O)O)cc1 (configuration not stated) [IBUPROFEN],UI,[15],13.3
O=C(Nc1ccccc1Cl)c1c2[nH]cnc(=O)c2c2n1CCC2,inhibition (INH),Rattus norvegicus [3],30.3%
same,UI,[4],15.1
Cc1ccccc1NC(=O)c1c2[nH]cnc(=O)c2c2n1CCC2,inhibition (INH),Rattus norvegicus [3],28.8%
same,UI,[4],17.4
CS(=O)(=O)Nc1ccc(-c2cn3c(c2-c2ccccc2)CCC3)cc1,IC50,[5],3.6 µM
same,IP,[6],10%
same,IC50,[13],3.4 µM
Cc1ccccc1NC(=O)c1c(N)c(C#N)c2n1CCC2,inhibition (INH),Rattus norvegicus [3],31.6%
same,UI,[4],11.3
c1ccc(-c2c(-c3ccco3)cn3c2CCC3)cc1,IP,[6],20%
same,IC50,[13],10 µM
O=C(O)C1CCn2c1cc(-c1ccc(Cl)cc1)c2-c1ccc(Cl)cc1 (configuration not stated),Activity,Mus musculus [1],81.3%
same,inhibition in vivo at 30 mg/kg,Rattus norvegicus [2],52.3%
CS(=O)(=O)c1ccc(-c2cn3c(c2-c2ccccc2)CCC3)cc1,IC50,[5],0.03 µM
same,IP,[6],25%
same,IC50,[13],10 µM
O=C(c1ccccc1)c1ccc2n1CC[C@H]2C(=O)O,ED50,Rattus norvegicus [8],4 mg/kg
same,IC50,[11],> 100 µM
same,IC50,[12],> 100 µM
COc1ccc2c(c1)c(CC(=O)O)c(C)n2C(=O)c1ccc(Cl)cc1 [INDOMETHACIN],UI,[16],14
Cc1ccc(NCC2Cn3cccc3C2=O)cc1 (configuration not stated),UI,[17],0
same,Drug excretion,[18],60%
same,Drug excretion,[19],28%
same,Drug excretion,[20],12%
O=C(c1ccccc1)c1ccc2n1CC[C@@H]2C(=O)O,ED50,Rattus norvegicus [8],0.02 mg/kg
same,IC50,[11],1.46 µM
same,IC50,[12],0.46 µM
c1ccc(-c2c(-c3cccs3)cn3c2CCC3)cc1,IC50,[13],10 µM
O=C(Nc1ccccc1)C1CCn2c1cc(-c1ccc(Cl)cc1)c2-c1ccc(Cl)cc1 (configuration not stated),inhibition in vivo at 30 mg/kg,Rattus norvegicus [2],37.4%
same,inhibition at 10 µM,Oryctolagus cuniculus,78%
Cc1ccc(-c2cn3c(c2-c2ccccc2)CCC3)s1,IC50,[5],1.8 µM
same,IP,[6],0%
same,IP,[7],0%
